{"source": "patent US20160303068A1", "about": "“Compositions and Methods For Treating Brain Injury and Brain Diseases” (University of Washington through its Center for …, priority 2013, published 2016)", "key": {"[1]": {"test": "[3H] paclitaxel distribution in brain via intranasal administration", "format": "in vivo, male CD-1 mice", "conditions": "1 μCi [3H] paclitaxel in 1 μl PBS to the right nares", "experimental": "FIGS. 4 A and 4B are graphs showing [^3H] paclitaxel distribution via intranasal administration in male CD-1 mice, 8 weeks, after administration of 1 μCi of [^3H] paclitaxel in 1 μl PBS to the right nares;\nFIGS. 4A and 4B show distribution of a taxane (paclitaxel) in the brain, when the taxane is administered intranasally. […] Thus, the intranasally administered taxane can bypass the blood-brain barrier (BBB) via the olfactory epithelium, and thereby provide therapeutic effect to a subject. The treatment methods can advantageously administer drug to the brain (e.g., an injured area of the brain) while minimizing side effects in non-target organs. The methods can have widespread applications. For example, intranasal administration of taxanes can result in decreased neuroinflammation, and can therefore be used in treatment of neuroinflammatory conditions, such as neurodegenerative diseases including Alzheimer's disease and related tauopathies, multiple sclerosis, viral infections, Parkinson's disease, as well as head trauma and mild concussions."}, "[2]": {"test_system": "rodent model of traumatic brain injury", "test": "MRI (T1-weighted, quantitative T2 maps) of injury volume and edema after controlled cortical impact", "format": "in vivo, C57BL6 mice", "experimental": "(§1) Rodent subjects (C57BL6 mice, 10 wks, male, n=12) had craniotomy over the right frontoparietal cortex of 5 mm, plus mild controlled cortical impact (CCI) surgery using a pneumatic impactor (AmScien Instruments, Richmond, Va.) at 6 m/s strike velocity, 1 mm depth of penetration, and 150 ms contact time, under isoflurane anesthesia. Immediately following CCI, 200 ug/kg paclitaxel (n=6) or vehicle (n=6) was applied to the brain injury site. Sham surgery (craniotomy, but no CCI) was performed on controls (n=3).\n(§2) At 2 days post-surgery, gait assessment of the subjects was conducted using CatWalk automated gait analysis (Noldus Information Tech, The Netherlands) followed by high-tesla magnetic resonance imaging (14T MR Avance III Ultrashield, Bruker BioSpin, Billerica, Mass.). T1-weighted and quantitative T2 maps were obtained: MDEFT (3D modified driven equilibrium Fourier transform), […]: 12°, TR (repetition time): 5000 ms, TE (echo time): 1.9ms, resolution 0.140×0.140×0.25 mm^3, 64 slices; T2 map: TR=2000 ms, 16 echoes, spacing:6.7 ms, TE1: 6.7 ms, TE 2:13.4 ms, resolution 0.12×0.12×1.0 mm^3, 15 slices. Manual volume of interest (VOI) analysis of injury volume and volume of edema related to injury was performed."}, "[3]": {"test_system": "rodent model of traumatic brain injury", "test": "Macromolecular proton fraction (MPF) imaging of myelin density adjacent to injury after CCI", "format": "in vivo, C57BL6 mice", "experimental": "as §1\nMacromolecular proton fraction (MPF) imaging is a quantitative magnetic resonance technique that measures the magnetization transfer between protons bound to water and protons bound to macromolecules. MPF imaging was performed to evaluate myelin degradation adjacent to injury. […] Mean myelin density was calculated for a region of interest (circular region having a diameter of […]) that was larger than the actual injury (1.5 mm)."}, "[4]": {"test_system": "rodent model of traumatic brain injury", "test": "CatWalk automated gait analysis after CCI", "format": "in vivo, C57BL6 mice", "experimental": "as §1, §2"}, "[5]": {"test_system": "rodent model of traumatic brain injury", "test": "Fractional anisotropy imaging of external capsule integrity after CCI", "format": "in vivo, C57BL6 mice", "conditions": "following CCI; paclitaxel not intranasally administered", "experimental": "as §1\nThe MPF results were corroborated using cross-relaxation imaging. Cross-relaxation imaging (CRI) is a quantitative magnetic resonance technique that measures the kinetic parameters of magnetization transfer between protons bound to water and protons bound to macromolecules. Here, in vivo, four-parameter CRI of normal rat brains (n=5) at 3.0 T was first directly compared to histology. The bound pool fraction, f, was strongly associated with myelin density (Pearson's r=0.99, p<0.001). The correlation persisted in separate analyses of gray matter (GM; r=0.89, p=0.046) and white matter (WM; r=0.97, p=0.029). The CRI results validated the MPF results, in that the taxane helped to preserve myelin density around the injury. Fractional anisotropy imaging was carried out to evaluate the integrity of underlying external capsule. […]"}, "3×Tg-AD mice": {"test_system": "3×Tg-AD mice", "test": "Manganese-enhanced MRI (MEMRI) of axonal transport rates in the olfactory tract, 3×Tg-AD mice", "format": "in vivo", "conditions": "intranasal 0.6 mg/kg, vs saline or young wild-type controls", "source_text": "MRI: Mice are anesthetized with isoflurane and scanned on an ultra-high resolution 14T MRI (Avance III, Bruker BioSpin Corp, Billerica, Mass.). Dynamic manganese enhanced magnetic resonance imaging (dyMEMRI): Mice are anesthetized with isoflurane and administered a unilateral injection of Sul of 1 M MnCl2 intranasally (with occlusion to block septal window). Parameters for magnetization prepared rapid gradient echo (MPRAGE) (TR/TE=11/5.3 ms; Ti=1000 ms; FA=9 deg acquired matrix 108×108 mm over 55 slices, voxel 0.2×0.2×0.4 mm3 interpolated to 0.1×0.1×0.2 mm3). […] MicroPET: Metabolic brain activity is assessed using FDG-PET performed under isoflurane anesthesia with 30 min uptake after 250 μCi intraperitoneal injection of FDG. […]\nThe effect of intra-nasal treatment of taxanes on the development of neurodegenerative pathology in a model of Alzheimer's disease was also studied. […] Treatment effectiveness was assessed with the same outcome measures as described in Example 1.\n(§3) Intranasal paclitaxel (Hospira, Inc., Lake Forest, Ill.) was administered to 3×Tg-AD mice (0.6 mg/kg in 0.9 percent saline, […] per nostril). […] Dynamic T1-weighted MR imaging detected signal enhancement and post-processing algorithms calculate a relative rate of transport. […]"}, "wild-type mice": {"test_system": "wild-type mice", "test": "Manganese-enhanced MRI (MEMRI) of axonal transport rates, wild-type mice", "format": "in vivo", "conditions": "wild-type mice treated with paclitaxel vs young wild-type controls, p≦0.01", "source_text": "MRI: Mice are anesthetized with isoflurane and scanned on an ultra-high resolution 14T MRI (Avance III, Bruker BioSpin Corp, Billerica, Mass.). Dynamic manganese enhanced magnetic resonance imaging (dyMEMRI): Mice are anesthetized with isoflurane and administered a unilateral injection of Sul of 1 M MnCl2 intranasally (with occlusion to block septal window). Parameters for magnetization prepared rapid gradient echo (MPRAGE) (TR/TE=11/5.3 ms; Ti=1000 ms; FA=9 deg acquired matrix 108×108 mm over 55 slices, voxel 0.2×0.2×0.4 mm3 interpolated to 0.1×0.1×0.2 mm3). Mice are scanned dynamically for 45 min (early uptake) at 1 hour post administration, allowed to recover and scanned again at 4-6 hours post (late transport) for 60 min. DTI acquired as 4 shot echo planar image (EPI); TR/TE=4000/18 ms, 30 diffusion directions, multislice 2D, b=1000 s/mm2, FOV 19×19 mm, matrix size=128×128 with slice thickness=0.5 mm over 9 min. MicroPET: Metabolic brain activity is assessed using FDG-PET performed under isoflurane anesthesia with 30 min uptake after 250 μCi intraperitoneal injection of FDG. […]\nas §3"}, "[6]": {"test_system": "glia fibrillary acidic protein (GFAP) expression", "test": "GFAP immunostain of CA1 region of hippocampus (reactive astrocytes)", "format": "in vivo, 3×Tg-AD mice", "conditions": "intranasal 0.6 mg/kg at 2 week intervals for 3 months; vs saline", "experimental": "Histology and Westerns. All confocal microscopy and immunohistochemistry are performed on perfusion fixed tissue prepared from animals that, immediately after euthanasia with pentobaritol (100 mg/kg), are perfused with saline followed by 4 percent paraformaldehyde/saline. For biochemical experiments (Western blots, etc.) other animals are perfused after death with saline and then the brains are rapidly dissected and flash frozen in liquid N2. Brain sections corresponding to the olfactory bulb are stained for Fluoro-Jade (1:1000, Histo-Chem Inc., AR, USA) as a marker of degenerating neurons and can be used to assess if 9 months of paclitaxel intranasal treatment may be neurotoxic. Glial fibrillary acidic protein (GFAP, 1:1500, Dako, Carpinteria, Calif.), an astroglial marker, and ionized calcium-binding adapter molecule 1 (Iba-1) (1:1000 Dako, Carpinteria, Calif.), a marker of microglial activation are processed using Avidin-Biotin procedure, which uses biotinylated secondary antibodies, avidin coupled to horse radish peroxidase (HRP) and reacted with 3,3′diaminobenzidine.\nThe application of paclitaxel to 3×Tg-AD mice (0.6 mg/kg at 2 week intervals for 3 months, intranasal administration) was investigated. It has been shown that microglia and astrocytes respond acutely to brain injury. […]"}, "spinal cord injury": {"test_system": "spinal cord injury", "conditions": "after spinal cord injury; cited from earlier work"}, "[7]": {"test_system": "AD transgenic mouse models", "conditions": "in vivo; cited from earlier work"}}, "note": "Entries after “also recorded” stand apart in the source; their conditions may differ.", "data": [{"compound": "CC(=O)O[C@H]1C(=O)[C@@]2(C)[C@H]([C@H](OC(=O)c3ccccc3)[C@]3(O)C[C@H](OC(=O)[C@H](O)[C@@H](NC(=O)c4ccccc4)c4ccccc4)C(C)=C1C3(C)C)[C@]1(OC(C)=O)CO[C@@H]1C[C@@H]2O", "note": "[paclitaxel]", "values": [{"measurement": "brain regions taking up taxane (FIG. 4A)", "setting": "[1]", "value": "taken up by the olfactory bulbs, the striatum, the hippocampus, the frontal cortex, the hypothalamus, and the cerebellum"}, {"measurement": "regional brain uptake level (second distribution graph)", "setting": "[1]", "value": "high striatum and hypothalamus uptake"}, {"measurement": "injury volume", "setting": "[2]; 200 ug/kg applied to brain injury site immediately after CCI, MRI 2 days post-surgery, vs vehicle 9.96±2.3, p≦0.05", "value": "7.94±1.5", "unit": "mm^3"}, {"measurement": "hyperintense voxels (edema) on quantitative T2 maps", "setting": "[2]; 200 ug/kg applied to brain injury site, 2 days post-surgery, vs vehicle 11.92±3.0, p≦0.05", "value": "8.86±2.2", "unit": "mm^3"}, {"measurement": "reduction of hyperintense voxels (edema)", "setting": "[2]; 200 ug/kg applied to brain injury site, vs vehicle", "value": 26, "unit": "%"}, {"measurement": "reduction in injury volume", "setting": "[2]; 200 ug/kg applied to brain injury site, vs vehicle, T2 and T1 images", "value": 20, "unit": "%"}, {"measurement": "injury volume on T1-weighted MRI (in words)", "setting": "[2]; paclitaxel versus saline treatment", "value": "indicating reduced injury"}, {"measurement": "MPF bound percent, injury side", "setting": "[3]; mn±sd, vs vehicle 8.95±0.3, p≦0.05", "value": "9.45±0.4"}, {"measurement": "MPF bound percent, contralateral cortical area", "setting": "[3]; vs vehicle", "value": "No difference"}, {"measurement": "increase of MPF bound percent on the injury side", "setting": "[3]; vs vehicle", "value": 6.6, "unit": "%"}, {"measurement": "maximum print area", "setting": "[4]; 2 days post-surgery, vs vehicle 0.29±0.08, p≦0.05", "value": "0.38±0.09", "unit": "cm^2"}, {"measurement": "mean intensity", "setting": "[4]; 2 days post-surgery, vs vehicle 66.38±5.52, p≦0.05", "value": "79.45±14.26"}, {"measurement": "swing, decreased", "setting": "[4]; right front (RF) and left hind (LF) only, vs vehicle", "value": 12, "unit": "%"}, {"measurement": "print length, increase", "setting": "[4]; right hind (RH) only, vs vehicle", "value": 12, "unit": "%"}, {"measurement": "gait parameters (in words)", "setting": "[4]; short term, 8 days, paclitaxel over saline treated subjects", "value": "Improved gait parameters"}, {"measurement": "maximum print area, increased", "setting": "[4]; vs vehicle", "value": "22-52%"}, {"measurement": "mean intensity, increased", "setting": "[4]; vs vehicle", "value": "19-22%"}, {"measurement": "print area, increased", "setting": "[4]; vs vehicle", "value": "20-45%"}, {"measurement": "print width, increased", "setting": "[4]; vs vehicle", "value": "5-17%"}, {"measurement": "underlying white matter integrity (FA values in external capsule)", "setting": "[5]", "value": "No significant improvement"}, {"measurement": "axonal transport rates", "setting": "3×Tg-AD mice", "value": "increased transport significantly; also recorded: Improved axonal transport rates; also recorded: relatively increased"}, {"measurement": "axonal transport rates", "setting": "wild-type mice", "value": "relatively increased"}, {"measurement": "GFAP expression / reactive astrocytes in CA1 region of hippocampus", "setting": "[6]", "value": "decreased evidence of activated astrocytes; also recorded: markedly reduced reactive astrocytes; also recorded: reduced GFAP expression levels; also recorded: showing reduced"}, {"measurement": "axon regeneration", "setting": "spinal cord injury", "value": "facilitate axon regeneration"}]}, {"compound": "C/C1=C/C[C@@H](/C(C)=C/c2csc(C)n2)OC(=O)C[C@H](O)C(C)(C)C(=O)[C@H](C)[C@@H](O)[C@@H](C)CCC1", "note": "[epothilone D]", "values": [{"measurement": "cognitive performance", "setting": "[7]", "value": "improve cognitive performance"}, {"measurement": "tau pathology", "setting": "[7]", "value": "reduce associated tau pathology"}]}]}
